Reference: patent US9376424B2, “Methods for treating post traumatic stress disorder” (AZEVAN PHARMACEUTICALS, INC., priority 2010, dated 2016)
Entries after “also recorded” stand apart in the source; their conditions may differ.

Key:
[1] = molecular target: T1, human V1a receptor (Homo sapiens, UniProt P37288); assay: Inhibition of phosphatidylinositol turnover (V1a); format: cell-based; conditions: V1a
T1 construct: host or cells: CHO cells
Source text: Inhibition of phosphatidylinositol turnover (V1a). The physiological effects of vasopressin are mediated through specific G-protein coupled receptors. The vasopressin V1a receptor is coupled to the Gq/G11 family of G proteins and mediates phosphatidylinositol turnover. The agonist or antagonist character of the compounds of the invention may be determined by their ability to inhibit vasopressin-mediated turnover of phosphatidylinositol by the procedure described in the following paragraphs.
Cell culture and labeling of cells. Three days prior to the assay, near-confluent cultures of hV1a or hV1b cells were dissociated and seeded in 6-well tissue culture plates, about 100 wells being seeded from each 75 cm^2 flask (equivalent to 12:1 split ratio). Each well contained 1 mL of growth medium with 2 μCi of [^3H]myo-inositol (American Radiolabeled Chemicals, St. Louis, Mo., USA).
Incubations (V1a and V1b). All assays were in triplicate except for basal and 10 nM AVP (both n=6). AVP ((arginine vasopressin), Peninsula Labs, Belmont, Calif., USA (#8103)) was dissolved in 0.1N acetic acid. Test agents were dissolved in DMSO and diluted in DMSO to 200 times the final test concentration. […] The order of incubations was randomized. Incubations were initiated by removing the prelabeling medium, washing the monolayer once with 1 mL of 0.9% NaCl, and transferring the contents of the assay tubes to corresponding wells. The plates were incubated for 1 hour at 37° C. Incubations were terminated by removing the incubation medium and adding 500 μL of ice cold 5% (w/v) trichloroacetic acid and allowing the wells to stand for 15 min.
Measurement of [^3H]inositol phosphates (V1a and V1b). BioRad Poly-Prep Econo-Columns were packed with 0.3 mL of AG 1×−8 100-200 formate form resin. Resin was mixed 1:1 with water and 0.6 mL added to each column. Columns were then washed with 10 mL water. Scintillation vials (20 mL) were placed under each column. For each well, the contents were transferred to a minicolumn, after which the well was washed with 0.5 mL distilled water, which was also added to the minicolumn. The columns were then washed twice with 5 mL of 5 mM myo-inositol to elute free inositol. Aliquots (1 mL) were transferred to 20 mL scintillation vials and 10 mL of Beckman Ready Protein Plus added. After the myo-inositol wash was complete, empty scintillation vials were placed under the columns, and [^3H]inositol phosphates were eluted with three additions of 1 mL 0.5 M ammonium formate containing 0.1 N formic acid. Elution conditions were optimized to recover inositol mono-, bis-, and trisphosphates, without eluting the more metabolically inert tetrakis-, pentakis-, and hexakis-phosphates. To each sample was added 10 mL of a high salt capacity scintillation fluid such as Tru-Count High Salt Capacity or Packard Hionic-Fluor. Inositol lipids were measured by adding 1 mL of 2% sodium dodecyl sulfate (SDS) to each well, allowing the wells to stand for at least 30 min., and transferring the solution to 20 mL scintillation vials, to which 10 mL Beckman Ready Protein Plus scintillation fluid was then added. Samples were counted in a Beckman LS 3801 liquid scintillation counter for 10 min. Total inositol incorporation for each well was calculated as the sum of free inositol, inositol phosphates, and inositol lipids.
Data analysis (V1a and V1b): concentration-inhibition experiments. Concentration-response curves for AVP and concentration-inhibition curves for test agents versus 10 nM AVP were analyzed by nonlinear least-squares curve-fitting to a 4-parameter logistic function. Parameters for basal and maximal inositol phosphates, EC50 or IC50, and Hill coefficient were varied to achieve the best fit. The curve-fitting was weighted under the assumption that the standard deviation was proportional to dpm of radioactivity. Full concentration-response curves for AVP were run in each experiment. […]

[2] = tested on: male Long Evans rats; assay: Predatory fear conditioning model of PTSD (ferret/sucrose, fMRI of awake rats); format: in vivo, rat
Source text: The use of the compounds and compositions described herein for treating PTSD and stress-related affective illness is established using a model of predatory fear conditioning. The model uses fMRI data of rats exposed to a ferret, a natural predator, as the unconditioned stimulus while experiencing the taste of sucrose, which is highly rewarding, as the conditioned stimulus. The taste of sucrose becomes associated with the traumatic memory of the ferret. […] This hyperarousal pattern of brain activity in response to a stimulus associated with a traumatic memory is characteristic of PTSD. […] Thus, the memory of fear is worse than fear itself. Treatment with compounds and compositions described herein block the hyperarousal seen with the sucrose-associated traumatic memory in untreated animals. The compounds described herein are efficacious in a this new preclinical model of PTSD in rats that utilized predatory fear as the unconditioned stimulus and the taste of sucrose as the conditioned stimulus. […] Compounds described herein are also efficacious in established models of depression (social interaction test), anxiety (Elevated Plus Maze, Light:Dark Shuttle Box), and aggression (resident:intruder test). The predatory fear conditioning juxtaposes an aversive unconditioned stimulus (threat of predation), with the taste of sucrose as the conditioned stimulus. During an imaging session, awake rats are exposed to a live, sable ferret placed into the bore of the magnet. This presentation of the predator is done with and without the application of sucrose to the tongue of the rat. Retrieval of the memory weeks later by the application of sucrose alone (as a Conditioned Stimulus) in the absence of the ferret elicits a robust increase in brain activity that far exceeds the initial presentation of the predator. […]

[3] = tested on: resident male rats; assay: Resident-Intruder Model of Stress and Aggression in Rats (neuroimaging); format: in vivo, rat; conditions: awake resident male rats, 5 mg/kg
Source text: Resident-Intruder Model of Stress and Aggression in Rats. Neuroimaging is used to assess the blockade of stress/arousal with test compound compared to control. The effect of AVN251-HCl on functional circuitry was examined using the imaging method for awake rats. Additional details of the assay are described in Ferris et al. (2008).
Male rats in the company of a female cage mate will piloerect in the presence of a male intruder. This piloerection is a sign of stress and aggressive intent and is associated with activation of stress/arousal circuits in the brain. […] Resident male rats from six male:female pairs were imaged while fully awake. During a single imaging session, these males were treated with vehicle or AVN251-HCl (5 mg/kg).
The total volume of brain activation for resident males confronted with their mate alone, mate plus intruder, and mate plus intruder in the presence of AVN251-HCl can be viewed as 3D models. While there appears to be a general decrease in BOLD signal in major regions with AVN251-HCl treatment, sexual motivation, as assessed by the presentation of a novel receptive female, was unaffected by V1a receptor blockade.
Stress circuit activation in response to an intruder male is assessed by obtaining brain scans viewed from a caudal/dorsal perspective as translucent shells. The localization of activated voxels is mapped as 3D volumes of activation, which are composed of 10 subjects each. Once fully registered and segmented, the statistical responses for each subject are averaged on a voxel-by-voxel basis. Those averaged voxels exceeding a 2.0% threshold are shown in their appropriate spatial location. Functional images are acquired on awake rats at 4.7 T.
The 3D volumes of activation are composed from results obtained with 10 subjects in each condition. […] Particular olfactory systems measured included the anterior olfactory nucleus, olfactory tubercle, piriform cortex, n. laterial olfactory tract, and entrorhinal cortex. Particular dopaminergic systems measured included the prelimbic cortex, accumbens, ventral pallidum, medial dorsal thalamus, and ventral tegmentum.
Awake rats were imaged when presented with their mate+an intruder, a highly stressful stimulus.

[4] = tested on: C57B1/6J males; assay: Social Interaction Test after chronic social subjugation; format: in vivo, mouse; conditions: mice, 28-day treatment regimen
Source text: Mouse Chronic Subordination Model of Depression. Social stress is a factor in the etiology of several psychopathologies, with individuals differing in vulnerability. Adult male mice are subjected to a model of chronic psychosocial stress in which resident/intruder dyads live chronically in sensory contact and physically interact on a daily basis.
Anti-depressant Effect in the Social Interaction Test. […] A rapid subjugation paradigm in mice lead to diminished social interaction behavior, where the dependent measures are distance traveled and time in the Interaction Zone. […] These observations are consistent with the subordination/social interaction model as a rapid behavioral screen for potential antidepressants. Additional details are described in Berton et al. (2006).
Briefly, C57B1/6J males were defeated daily for 10 days by resident, highly aggressive CF-1 males. After 5 minutes of direct exposure, a perforated plastic partition was inserted into the cage that allowed olfactory and visual contact without physical defeat for the remaining 23 hr 55 min each day. The C57 males were exposed to a different resident male in a different cage each day to increase the stress of the procedure (it was observed that all CF-1 males attacked the intruder each day). At the end of the 10 day defeat procedure, the C57 males were tested in an open field apparatus during the dark phase. A dominant male was caged in an area of the open field apparatus termed the “social interaction zone.” Time and distance traveled in the zone were recorded. The C57 males were then divided randomly among the following treatments: AVN246-HCl (2 mg/kg), saline vehicle (0.45%), or chlordiazepoxide (10 mg/kg). Treatments were given daily (i.p.) for 28 days and the animals were retested. Behavioral changes were determined by calculating difference scores (Post-Pretest) and these scores were analyzed.

T1 sequence (P37288 whole entry): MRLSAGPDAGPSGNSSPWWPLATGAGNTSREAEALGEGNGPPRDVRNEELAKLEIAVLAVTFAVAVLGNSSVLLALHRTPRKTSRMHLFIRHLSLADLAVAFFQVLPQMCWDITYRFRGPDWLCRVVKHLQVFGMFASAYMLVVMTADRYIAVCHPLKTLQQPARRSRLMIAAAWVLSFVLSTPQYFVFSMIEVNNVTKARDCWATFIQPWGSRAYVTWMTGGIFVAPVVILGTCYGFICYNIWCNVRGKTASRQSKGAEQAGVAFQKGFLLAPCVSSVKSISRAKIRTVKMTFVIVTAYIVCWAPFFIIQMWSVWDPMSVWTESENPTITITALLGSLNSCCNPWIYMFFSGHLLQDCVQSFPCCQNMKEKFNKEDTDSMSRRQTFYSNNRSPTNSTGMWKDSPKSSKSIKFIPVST

O=C(NCc1cccc(C(F)(F)F)c1)C(CC(=O)N1CCC(N2CCCCC2)CC1)N1C(=O)C(N2C(=O)OCC2c2ccccc2)C1C=Cc1ccccc1 (stereo not shown) [Example 44]
agonist or antagonist character (inhibition of vasopressin-mediated phosphatidylinositol turnover) [1]: vasopressin V1a antagonists

O=C(NCc1cccc(C(F)(F)F)c1)[C@H](CCC(=O)N1CCN(CCc2ccccc2)CC1)N1C(=O)[C@@H](N2C(=O)OC[C@@H]2c2ccccc2)[C@H]1C=Cc1ccccc1 (single isomer, unassigned) [Example 35]
agonist or antagonist character (inhibition of vasopressin-mediated phosphatidylinositol turnover) [1]: vasopressin V1a antagonists

C[C@@H](NC(=O)[C@@H](CC(=O)N1CCC(N2CCCCC2)CC1)N1C(=O)[C@@H](N2C(=O)OC[C@@H]2c2ccccc2)[C@H]1/C=C/c1cccc(I)c1)c1ccccc1 [Example 266]
retrieval of predatory fear memory [2]: effective in blocking retrieval of predatory fear memory | predatory fear response in the unconditioned test animal (activation for ferret alone) ([2]; pretreatment 5 mg/kg body weight): retained | hyperarousal brain activation pattern (BOLD) on re-exposure to sucrose alone ([2]; pretreatment 5 mg/kg body weight, two weeks after conditioning, listed as AVN576): blocked the hyperarousal brain activation pattern; also recorded: significantly reduces brain activation

O=C(NCc1cccc(C(F)(F)F)c1)C(CCC(=O)N1CCC(N2CCCCC2)CC1)N1C(=O)C(N2C(=O)OCC2c2ccccc2)C1C=Cc1ccccc1 (stereo not shown) [Example 88]
agonist or antagonist character (inhibition of vasopressin-mediated phosphatidylinositol turnover) [1]: vasopressin V1a antagonists

CNCCC(Oc1ccc(C(F)(F)F)cc1)c1ccccc1 (stereo not shown) [fluoxetine]
sexual motivation (reward circuit activation by novel receptive female) [3]: markedly diminished activation of this circuit | effect on deficits in social interaction produced by chronic subordination [4]: reversed deficits produced by chronic subordination | effect on deficits in social interaction produced by chronic subordination ([4]; listed as Fluoxetine): produced comparable improvements

O=C(NCc1cccc(C(F)(F)F)c1)C(CCC(=O)N1CCN(C2CCCCC2)CC1)N1C(=O)C(N2C(=O)OCC2c2ccccc2)C1C=Cc1ccccc1 (single isomer, unassigned) [Example 110]
agonist or antagonist character (inhibition of vasopressin-mediated phosphatidylinositol turnover) [1]: vasopressin V1a antagonists
